Data: article PMC11187126, “Structure and dynamics of the pyroglutamylated RF-amide peptide QRFP receptor GPR103” (Nature Communications, 2024)
Read-outs that look alike come from different tables or passages of the source. No end group written: not given here.

Molecular target: T1, GPR103 F322^7.43A (Homo sapiens, UniProt Q96P65, F322A)
T1 construct: we used human full-length QRFPR-encoding plasmids; expressed in transfected cells; host or cells: HEK293 cells (HEK293A in the flow cytometry section), pCAGGS vector
T1 sequence (Q96P65 1-431 F322A): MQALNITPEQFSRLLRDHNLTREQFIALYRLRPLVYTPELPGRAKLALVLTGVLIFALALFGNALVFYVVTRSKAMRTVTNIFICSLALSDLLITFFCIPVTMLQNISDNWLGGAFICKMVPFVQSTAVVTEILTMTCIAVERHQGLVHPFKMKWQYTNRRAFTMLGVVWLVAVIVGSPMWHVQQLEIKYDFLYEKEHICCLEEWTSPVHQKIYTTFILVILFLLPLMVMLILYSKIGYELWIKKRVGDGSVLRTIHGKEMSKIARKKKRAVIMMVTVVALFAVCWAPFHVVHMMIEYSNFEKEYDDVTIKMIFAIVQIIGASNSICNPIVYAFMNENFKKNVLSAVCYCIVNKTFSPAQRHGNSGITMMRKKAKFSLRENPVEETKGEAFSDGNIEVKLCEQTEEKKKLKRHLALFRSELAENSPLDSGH
Experiment: TGFα shedding assay; Exp. level WT (1:50)
Type: cell-based
Procedure: For the TGFα shedding assay and the flow cytometry analysis, we used human full-length QRFPR-encoding plasmids. Specifically, GPR103 was N-terminally modified with an HA signal sequence followed by a FLAG epitope and then a flexible linker ([…]; the FLAG epitope is underlined) and inserted into the pCAGGS vector. Plasmid encoding GPR103 mutants were generated using Quickchange Site-Directed Mutagensis kit (Agilent).
The TGFα shedding assay was performed as described previously with minor modifications. Plasmid transfection was performed in a 6-well plate with a mixture of 500 ng (per well in a 6-well plate) AP-TGFα-encoding plasmid and 200 ng GPR103-encoding plasmid. After 1-day culture, the transfected cells were harvested by trypsinization, pelleted by centrifugation at 190 × g for 5 min, and washed once with 5 mM HEPES (pH 7.4)-containing Hank’s Balanced Salt Solution (HBSS). After centrifugation, the cells were resuspended in 8 mL of the HEPES-containing HBSS. The cell suspension was seeded in a 96-well culture plate (cell plate) at a volume of 90 μL (per well hereafter) and incubated in a 37 °C incubator with 5% CO2 for 30 min. […] After spinning the cell plates at 190 × g for 2 min, 80 μL of conditioned media was transferred to an empty 96-well plate (conditioned media (CM) plate). Then, 80 μL of AP reaction solution (10 mM p-nitrophenylphosphate (p-NPP), 120 mM Tris-HCl (pH 9.5), 40 mM NaCl, and 10 mM MgCl2) was dispensed into the cell plates and the CM plates. Absorbance at 405 nm of the plates was measured using a microplate reader (SpectraMax 340 PC384, Molecular Devices) before and after 1-h incubation at room temperature. Ligand-induced AP-TGFα release was calculated by subtracting spontaneous AP-TGFα release signal from ligand-induced AP-TGFα release signal. The AP-TGFα release signals were fitted to a four-parameter sigmoidal concentration–response curve, using the Prism 10 software (GraphPad Prism). For each replicate experiment, the pEC50 parameter (negative logarithmic values of EC50 values) of the individual GPR103 mutants were normalized to that of the wild-type GPR103 performed in parallel, and resulting ∆pEC50 values were used to denote ligand response activity of the mutants. […]
Exp. le vel: WT (1:5 0)Exp. le vel: WT (1:5 0)Exp. le vel: WT (1:5 0)Exp. le vel: WT (1:2 0)Exp. le vel: WT (1:2 0)Exp. le vel: WT (1:1 0) […]
L1 4N - t e r mA F2 5N - t e r mA I 2 6N - t e r mA Y 2 9N - t e r mA C 9 82 .5 7A T10 22 .6 1A Exp . l eve l: WT (1 :5)Exp . l evel : >WT (1 :1)Exp. le vel: WT (1:2 0)Exp. le vel: WT (1:2 0)Exp. le vel: WT (1:5 0)Exp . l eve l: WT (1 :1) […]
Exp. le vel: WT (1:1 0)Exp. le vel: WT (1:2 0) C 1 1 83 .2 5AExp. le vel: WT (1:5 0)Exp. le vel: WT (1:5 0)Exp. le vel: WT (1:2 0)Exp . l eve l: WT (1 :5) […]
Exp. le vel: WT (1:5 0)Exp. le vel: WT (1:1 0)Exp. le vel: WT (1:5 0) E203ECL2AExp . l evel : >WT (1 :1)Exp. le vel: WT (1:5 0)Exp. le vel: WT (1:5 0) […]
Exp . l eve l: WT (1 :1) F28Exp. le vel: WT (1:5 0) C 2 8 56 .4 7AExp. le vel: WT (1:2 0) WExp. le vel: WT (1:2 0) F28Exp. le vel: WT (1:5 0)Exp . l evel : >WT (1 :1) […]
Exp. le vel: WT (1:5 0)Exp. le vel: WT (1:5 0) C 3 2 77 .4 8AExp . l eve l: WT (1 :5)Exp . l evel : >WT (1 :1)Exp . l evel : >WT (1 :1) […]
Suppl eme nt ary Figure 1 | Mutational analysis of GPR103. […]
mutants. Data are presented as mean values ± SEM, normally n=3-5; dots), each performed in triplicate. b-d Cell-surface expression (b) and QRFP26-in-duced activation of GPR103 (c, d) were analyzed by the flow cytometry and the TGFα shedding assay, respectively. From the concentration–response curves (a), Emax (c) and ΔpEC50 (d) values relative to the wild type were calculated. Colors in the mutant bars indicate an expression level matching to that of titrated wild type. Statistical analyses were performed using the ordinary one-way ANOVA followed by Dunnett tests with the expression-matched […]

Substance: TSGPLGNLAEELNGYSRKKGGFSFRF-NH2 [QRFP26]
- Emax (Exp. #1): 46.65 % WT
- Emax (Exp. #2): 35.03 % WT
- Emax (Exp. #3): 42.29 % WT
- Emax (mean, read-out: Emax): 41.3%
- EC50 (n = 3): 0.0245 µM
- Emax (n = 3, read-out: Emax): 42.7 ± 2.8%
